In data set [1] the test system is HepG2.2.15 cells. Nature of the data set: Cytotoxicity determination in HepG2.2.15 cells (CCK-8). The format is cell-based. Particulars: HepG2.2.15 cells, 5,000 cells/well, 6 days of compound treatment, CCK-8 absorbance 450 nm, highest concentration 100 uM. How it is done: (§1) • HepG2.2.15 (the HepG2.2.15 cell line can be produced by transfection of the HepG2 cell line as described in Sells, Chen, and Acs 1987 (Proc. Natl. Acad. Sci. USA 84: 1005-1009), and the HepG2 cell line is available from ATCC® under number HB-8065™)
(§2) Seed the cell HepG2.2.15 cells into 96-well plate in 2% FBS culture medium at the density of 40,000 cells/well and 5,000 cells/well for HBV inhibitory activity and cytotoxicity determination, respectively. After seeding, incubate the cell plates at 37° C., 5% CO2 overnight. The next day, medium containing compounds is added to the cell to treat the cells for 6 days with medium refreshed once in the middle of the treatment. 8 dose points with 3 folds dilution of each compound were adopted and the highest concentration of the compounds is 10 uM and 100 uM for HBV inhibitory activity and cytotoxicity determination, respectively.
After 6 days of compounds treatment, add 20 μl CCK-8 reagents to each well of cytotoxicity assay plates, incubate the plate at 37° C., 5% CO2 for 2.5 h and measure the absorbance at 450 nm wavelength, at the same time read the absorbance at 630 nm wavelength as reference.
(§3) EC50 and CC50 values are calculated by the GRAPHPAD PRISM software.

Data set [2] concerns HBV. Nature of the data set: HBV inhibitory activity in HepG2.2.15 cells (HBV DNA in culture medium by q-PCR). The format is cell-based. Particulars: HepG2.2.15 cells, 40,000 cells/well, 6 days of compound treatment, HBV DNA in culture medium by q-PCR, highest concentration 10 uM; read-out: EC50. The method, then:
as §1, §2
The HBV DAN change in the cell culture medium induced by the compounds is measured by q-PCR method. Briefly, the HBV DNA in the culture medium is extracted using QIAamp 96 DNA Blood Kit according to the manual and then quantified by q-PCR using the primers and probe in the table below.
as §3

For the compound `CCOC(=O)C1=C(C2CCc3nn(CCC(=O)O)cc3C2)NC(c2nccs2)=NC1c1cccc(F)c1C` (single isomer, unassigned) [Compound 41b, 3-(5-(5-(Ethoxycarbonyl)-6-(3-fluoro-2-methylphenyl)-2-(thiazol-2-yl)-3,6-dihydropyrimidin-4-yl)-4,5,6,7-tetrahydro-2H-indazol-2-yl)propanoic acid], the CC50 in data set [1] worked out at 6.6 µM. In addition, in data set [2], the EC50 was 0.292 µM.
For the compound `CCOC(=O)C1=C(C2CCc3nn(CCC(=O)O)cc3C2)NC(c2nccs2)=NC1c1ccc(F)cc1Cl` (single isomer, unassigned) [Compound 37c, 3-(5-(6-(2-Chloro-4-fluorophenyl)-5-(ethoxycarbonyl)-2-(thiazol-2-yl)-3,6-dihydropyrimidin-4-yl)-4,5,6,7-tetrahydro-2H-indazol-2-yl)propanoic acid], the CC50 in data set [1] came out at 21.1 µM. Besides, the EC50 in data set [2] worked out at 0.0222 µM.
The like results for `CCOC(=O)C1=C(C2CCc3nn(C(C)CC(=O)O)cc3C2)NC(c2nccs2)=NC1c1ccc(F)c(F)c1Cl` (single isomer, unassigned) [Compound 51c, 3-(5-(6-(2-chloro-3,4-difluorophenyl)-5-(ethoxycarbonyl)-2-(thiazol-2-yl)-3,6-dihydropyrimidin-4-yl)-4,5,6,7-tetrahydro-2H-indazol-2-yl)butanoic acid] were, in that order, 8.6 µM and 0.0097 µM.
Turning to `COC(=O)C1=C(C2CCc3nn(C(C)(C)CC(=O)O)cc3C2)NC(c2nccs2)=NC1c1ccc(F)c(F)c1Cl` (single isomer, unassigned) [Compound 82c, 3-(5-(-6-(2-chloro-3,4-difluorophenyl)-5-(methoxycarbonyl)-2-(thiazol-2-yl)-3,6-dihydropyrimidin-4-yl)-4,5,6,7-tetrahydro-2H-indazol-2-yl)-3-methylbutanoic acid], in data set [1], the CC50 came to 15.1 µM. For the same compound, the EC50 in data set [2] turned out to be 0.0065 µM.
The corresponding values for `CCOC(=O)C1=C(C2CCc3nn(C(C)CC(=O)O)cc3C2)NC(c2nccs2)=NC1c1ccc(F)c(F)c1Cl` (single isomer, unassigned) [Compound 52d, 3-(5-(6-(2-chloro-3,4-difluorophenyl)-5-(ethoxycarbonyl)-2-(thiazol-2-yl)-3,6-dihydropyrimidin-4-yl)-4,5,6,7-tetrahydro-2H-indazol-2-yl)butanoic acid] are 10.5 µM and 0.0124 µM.
With `CCOC(=O)C1=C(C2CCc3nn(CCC(=O)O)cc3C2)NC(c2nccs2)=NC1c1cccc(F)c1Cl` (single isomer, unassigned) [Compound 40c, 3-(5-(6-(2-Chloro-3-fluorophenyl)-5-(ethoxycarbonyl)-2-(thiazol-2-yl)-3,6-dihydropyrimidin-4-yl)-4,5,6,7-tetrahydro-2H-indazol-2-yl)propanoic acid], the CC50 in data set [1] came out at 12.5 µM. In addition, in data set [2], the EC50 amounted to 0.0331 µM.
As for `CCOC(=O)C1=C(C2CCc3nn(CCC(=O)O)cc3C2)NC(c2nccs2)=NC1c1ccc(F)c(F)c1C` (single isomer, unassigned) [Compound 35c, 3-(5-(6-(3,4-Difluoro-2-methylphenyl)-5-(ethoxycarbonyl)-2-(thiazol-2-yl)-3,6-dihydropyrimidin-4-yl)-4,5,6,7-tetrahydro-2H-indazol-2-yl)propanoic acid], in data set [1], it took 14.4 µM to reach half-maximal cytotoxicity (CC50). Also, the EC50 in data set [2] is below 0.0046 µM.
In the case of `CCOC(=O)C1=C(C2CCc3nn(CCCC(=O)O)cc3C2)NC(c2nccs2)=NC1c1ccc(F)c(F)c1Cl` (single isomer, unassigned) [Compound 50c, 4-(5-(6-(2-Chloro-3,4-difluorophenyl)-5-(ethoxycarbonyl)-2-(thiazol-2-yl)-3,6-dihydropyrimidin-4-yl)-4,5,6,7-tetrahydro-2H-indazol-2-yl)butanoic acid], the CC50 in data set [1] amounted to 11.9 µM. The EC50 in data set [2] was below 0.0046 µM.

The CC50 is the concentration at which the toxic effect on the cells reaches its halfway point. As a reminder, the EC50 is the concentration needed to bring the measured effect to its halfway point.

The values are drawn from patent US20210220356A1, “DIHYDROPYRIMIDINE DERIVATIVES AND USES THEREOF IN THE TREATMENT OF HBV INFECTION OR OF HBV-INDUCED DISEASES” (Janssen Sciences Ireland Unlimited Company, priority 2018, published 2021).
